# In publication PMC10119282, “Molecular characterization of AIFM2/FSP1 inhibition by iFSP1-like molecules” (Cell Death & Disease, 2023):
# Target: T1, hFSP1 WT (Homo sapiens, UniProt Q9BRQ8)
# T1 construct: HisSUMO (cleaved yes); made in house; host or cells: E. coli BL21
# T1 sequence (Q9BRQ8 1-373): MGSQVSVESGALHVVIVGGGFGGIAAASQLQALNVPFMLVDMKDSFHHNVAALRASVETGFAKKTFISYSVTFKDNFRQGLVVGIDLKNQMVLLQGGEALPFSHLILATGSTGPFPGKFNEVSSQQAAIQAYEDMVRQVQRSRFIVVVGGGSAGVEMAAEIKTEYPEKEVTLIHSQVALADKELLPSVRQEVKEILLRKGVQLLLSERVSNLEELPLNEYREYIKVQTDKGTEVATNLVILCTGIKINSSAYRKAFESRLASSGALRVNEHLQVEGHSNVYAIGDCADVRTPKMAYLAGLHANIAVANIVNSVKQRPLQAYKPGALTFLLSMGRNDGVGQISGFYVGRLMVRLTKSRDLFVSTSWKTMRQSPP
# Experiment: Competition MST against pre-formed complex of hFSP1 WT and FSP1-Tracer
# Assay type: binding
# Description: FSP1 (human isoform 1, UniProt Q9BRQ8-1) WT (hFSP1 WT) and F360L (hFSP1 F360L) were expressed in E.coli BL21 as HisSUMO fusion protein. Cells were grown in lysogeny broth medium at 18 °C and induced with 0.5 mM isopropyl-β-thiogalactoside at a cell density A600 of 0.6. Cells were collected after overnight expression by centrifugation, resuspended in lysis buffer ([…], 50 mM Tris-HCl pH 8, 1 mM TCEP, 20 mM imidazole, protease inhibitor, DNase) and lysed by sonication. Cell debris was removed by centrifugation (30,000 × g) at 4 °C for 30 min, after which an IMAC purification was performed. Briefly, a HisTrap crude FF (5 mL) column was equilibrated to lysis buffer, lysates were loaded via the sample pump and the column was then washed with 50 mL lysis buffer. During the elution with a gradient to 100% IMAC elution buffer (300 mM NaCl, 50 mM Tris-HCl pH 8, 1 mM TCEP, 400 mM imidazole) over 100 mL, 5 mL fractions were collected. The pooled fractions were dialysed overnight in the presence of SenP2 SUMO protease at a ratio of 40:1 FSP1:SenP2. Afterwards, a reverse IMAC purification was performed on a HisTrap crude FF (5 mL) column. IMAC eluates were analysed by SDS PAGE and concentrated to 15 mL (hFSP1 WT) and 5 mL (hFSP1 F360L), respectively. […] Pure fractions were pooled (C12—D11 for hFSP1 WT and C7—D4 for hFSP1 F360L), analysed by SDS-PAGE (Supplementary Fig. 4) and concentrated to 5.8 mL at 285.9 µM (hFSP1 WT) and 1.2 mL at 269.5 µM (FSP1 F360L), flash frozen in liquid N2 and stored at −80 °C.
# An MST buffer consisting of 1× phosphate-buffered saline (PBS; 137 mM NaCl, 2.7 mM KCl, 10 mM Na2HPO4, 1.8 mM KH2PO4, pH 7.4) with 2 mM reduced L-Glutathione (GSH, Sigma Aldrich, product number G4251) and 0.05% (v/v) Tween 20 (ITW Reagents, molecular biology grade, product number A4974) was used for all MST measurements. […] KD values were determined by applying a Hill-fit to a plot of Fnorm vs. hFSP1 WT/F360L concentration. […]
smiles,measurement,setting,value
Cc1ccc(-c2c(C#N)c(N)n3c(nc4ccccc43)c2C#N)cc1 [iFSP1],Ki,hFSP1 WT 5 µM and FSP1-Tracer 5 nM pre-formed complex,61.6 nM
same,higher binding affinity to hFSP1 than NADH,iFSP1 Ki versus NADH Ki,7.4 fold
